Source: publication PMC6895180 (Nature Communications, 2019)
Where “and” joins values, the source holds several entries; their conditions need not be identical. Equal values may be shown once. Read-outs that look alike come from different tables or passages of the source. Marks after values point to notes of the source that are not given here.

Columns and labels:
[1] = test system: TbAT1-KO: T. brucei cell line lacking the TbAT1(P2) transporter gene; assay: microbe, parasite or virus in culture; type: cell-based, Trypanosoma brucei brucei; details: for EC50: Trypanosoma brucei
Procedure: (§1) Drug susceptibility tests with Lister 427WT, TbAT1-KO[48], B48[26] and ISMR1[27] were performed using an assay based on the viability indicator dye resazurin in 96-well plates, each well containing 2 × 10^4 cells. The plates were incubated for 48 h with a doubling dilution series of the test compounds in HMI-9/fetal bovine serum at 37 °C/5% CO2 (23 dilutions starting at 100 µM, except for the pentamidine control (50 µM)), after which resazurin (20 µL of 125 µg mL^−1 resazurin sodium salt solution was added to each well (containing 200 µL of cells and test compound)) was added to each well and the plates incubated for another 24 h. Fluorescence was determined using a FLUOstar Optima (BMG Labtech, Durham, NC) and the results fitted to a sigmoid curve with variable slope using Prism 5.0 or Prism 7.04 (GraphPad, San Diego, CA).

[2] = test system: ISMR1: isometamidium-resistant T. brucei cell line; assay: microbe, parasite or virus in culture; type: cell-based, Trypanosoma brucei brucei; details: for EC50: Trypanosoma brucei
Procedure: as §1

[3] = test system: B48: pentamidine, diminazene and melaminophenyl arsenical resistant T. brucei line; assay: microbe, parasite or virus in culture; type: cell-based, Trypanosoma brucei brucei; details: for EC50: Trypanosoma brucei
[4] = test system: T. b. brucei Lister 427WT; assay: Drug susceptibility test (resazurin), Lister 427WT; type: cell-based, Trypanosoma brucei brucei; details: Trypanosoma brucei
Procedure: as §1

[5] = test system: Lister 427WT T. b. brucei; assay: Adenosine deaminase susceptibility (drug sensitivity with/without 2 µM deoxycoformycin); type: cell-based, Trypanosoma brucei brucei
Procedure: as §1, with “CA). […]” for “CA).”
Adenosine deaminase susceptibility
in the presence or absence of 2 µM 2’-deoxycoformycin. […]

[6] = Metabolic stability, rat liver microsomes (phase I and II)
Procedure: (§2) Mouse, rat, and pooled human liver microsomes were purchased from a commercial source (Corning) and stored at -80 °C. NADPH generating system solutions A and B and UGT reaction mix solutions A and B (Corning) were kept at -20°C. The test compound and the reference compounds diclofenac (MW […]
(§3) microsomal stability assay was carried out based on the BD Biosciences Guidelines for Use (TF000017 Rev1.0) with minor adaptations. Metabolic stability of the compounds was studied through the CYP450 superfamily (phase I metabolism) by fortification with reduced nicotinamide adenine dinucleotide phosphate (NADPH) and through uridine glucuronosyl-transferase (UGT) enzymes (phase II metabolism) by fortification with uridine diphosphate glucuronic acid (UDPGA). For the CYP450 and other NADPH dependent enzymes, both compounds were incubated at 5 µM together with 0.5 mg mL-1 liver microsomes in potassium phosphate buffer in a reaction started by the addition of 1 mM NADPH […]
(§4) At these time points, 20 µL was withdrawn from the reaction mixture and 80 µL cold acetonitrile (ACN) containing the internal standard tolbutamide, was added to inactivate the enzymes and precipitate the proteins. The mixture was vortexed for 30 s and centrifuged at 4 °C for 5 min at 15,000 rpm. The supernatant was stored at -80°C until analysis. For the UGT enzymes, both compounds were incubated at 5 µM together with 0.5 mg mL-1 liver microsomes in a reaction started by the addition of 2 mM UDPGA cofactor. The corresponding loss of parent compound was determined using liquid chromatography (UPLC) (Waters AquityTM) coupled with tandem quadrupole mass spectrometry (MS²) (Waters XevoTM), equipped with an electrospray ionization (ESI) interface and operated in multiple reaction monitoring (MRM) mode. […]

[7] = Metabolic stability, pooled human liver microsomes (phase I and II)
Procedure: as §2, §3, §4

[8] = Metabolic stability, mouse liver microsomes (phase I and II)
Procedure: as §2, §3, §4

[9] = read-out: TbAT1-KO EC50, AVG, source data
[10] = source data, read-out: ISMR1 EC50, AVG
[11] = source data, read-out: B48 EC50, AVG
[12] = source data, read-out: s427 EC50, AVG
[13] = DCF +, single replicate, read-out: EC50
[14] = DCF -, single replicate, read-out: EC50
[15] = resistance factor vs Lister 427WT

## Nc1ncnc2c1c(-c1ccccn1)cn2[C@@H]1O[C@H](CO)[C@@H](O)[C@H]1O [Compound 7]
[1]; [9]
  EC50: 404 nM
[2]; [10]
  EC50: 433 nM
[3]; [11]
  EC50: 265 nM
[4]; [12]
  EC50: 170 nM

## Nc1ncnc2c1ncn2[C@@H]1O[C@H](CO)C[C@H]1O [Cordycepin (3)]
[5]; [13]
  EC50: 5.51 nM and 1.22 nM and 4.17 nM
[5]; [14]
  EC50: 169 nM and 509 nM and 634 nM
[5]; Trypanosoma brucei, DCF +, average of replicates, read-out: EC50 AVG
  EC50: 3.63 nM
[5]; Trypanosoma brucei, DCF +, read-out: EC50 Reported value
  EC50: 3.6 ± 1 nM
[5]; Trypanosoma brucei, DCF -, average of replicates, read-out: EC50 AVG
  EC50: 437 nM
[5]; Trypanosoma brucei, DCF -, read-out: EC50 Reported value
  EC50: 440 ± 110 nM

## O=C(O)Cc1ccccc1Nc1c(Cl)cccc1Cl [Diclo, diclofenac, reference compound]
[6]; CYP - NADPH, 15 min
  % parent compound remaining: 59±9%
[6]; CYP - NADPH, 30 min
  % parent compound remaining: 39±2.6%
[6]; CYP - NADPH, 60 min
  % parent compound remaining: 10±2.9%
[6]; UGT Enzymes, 15 min
  % parent compound remaining: 28±4.5%
[6]; UGT Enzymes, 30 min
  % parent compound remaining: 14±1.5%
[6]; UGT Enzymes, 60 min
  % parent compound remaining: 11±0.9%
[7]; CYP - NADPH, 15 min
  % parent compound remaining: 35±0.4%
[7]; CYP - NADPH, 30 min
  % parent compound remaining: 14±0.8%
[7]; CYP - NADPH, 60 min
  % parent compound remaining: 2±0.4%
[7]; UGT Enzymes, 15 min
  % parent compound remaining: 17±1.1%
[7]; UGT Enzymes, 30 min
  % parent compound remaining: 14±0.7%
[7]; UGT Enzymes, 60 min
  % parent compound remaining: 10±0.1%
[8]; CYP - NADPH, 15 min
  % parent compound remaining: 83±14%
[8]; CYP - NADPH, 30 min
  % parent compound remaining: 67±5.7%
[8]; CYP - NADPH, 60 min
  % parent compound remaining: 52±0.3%
[8]; UGT Enzymes, 15 min
  % parent compound remaining: 42±21%
[8]; UGT Enzymes, 30 min
  % parent compound remaining: 46±10%
[8]; UGT Enzymes, 60 min
  % parent compound remaining: 34±9%

## N=C(N)c1ccc(/N=N/Nc2ccc(C(=N)N)cc2)cc1 [Diminazene, reference compound]
[1]; [9]
  EC50: 4470 nM
[1]; read-out: TbAT1-KO EC50, mean and SEM, n = 3
  EC50: 4500 ± 900 nM
[1]; resistance factor: ratio of EC50 of resistant and Lister 427WT
  RF (TbAT1-KO): 10.6***
[2]; mean and SEM, n = 3, read-out: ISMR1 EC50
  EC50: 2900 ± 400 nM
[2]; [10]
  EC50: 2920 nM
[2]; [15]
  RF (ISMR1): 6.9***
[3]; mean and SEM, n = 3, read-out: B48 EC50
  EC50: 7200 ± 1600 nM
[3]; [11]
  EC50: 7150 nM
[3]; [15]
  RF (B48): 16.9***
[4]; mean and SEM, n = 3, read-out: Lister 427 EC50
  EC50: 420 ± 64 nM
[4]; [12]
  EC50: 423 nM

## Nc1ncnc2c1c(Br)cn2[C@@H]1O[C@H](CO)C[C@H]1O [FH7429-up (10)]
[5]; DCF +, average of replicates, read-out: EC50 AVG
  EC50: 1.9 nM
[5]; DCF +, read-out: EC50 Reported value
  EC50: 1.9 ± 0.2 nM
[5]; [13]
  EC50: 2.01 nM and 2.18 nM and 1.52 nM
[5]; DCF -, average of replicates, read-out: EC50 AVG
  EC50: 2.02 nM
[5]; DCF -, read-out: EC50 Reported value
  EC50: 2 ± 0.1 nM
[5]; [14]
  EC50: 1.9 nM and 1.86 nM and 2.3 nM
